These results are taken from patent US20090328243A1, “Secreted proteins as markers for cell differentiation” (priority 2003, published 2009).

Test [1] relates to ES cells. To be noted: in vitro; literature (Seiler et al., ALTEX 2002); cited from earlier work.
Test [2] deals with ES cells stably transfected with the α-MHC-SEAP vector (D3 mouse embryonic stem cells), differentiation into cardiac cells. To be noted: EB culture supernatants after 13 days.
Experimental: After 13 days culture supernatants were assayed for SEAP activity. Shown are mean values of duplicate samples from which background SEAP activity was substracted. Activities are expressed as percentage of SEAP activity in samples containing only solvent (DMSO) but no retinoic acid.
All incubations of cell cultures were performed at 37° C. in a humidified atmosphere containing 5% CO2.
Cells were collected by centrifugation (800 g for 5 min) and resuspended in Iscove's Modified Dulbecco's Medium (IMDM, Invitrogen) supplemented with 20% (v/v) fetal bovine serum (FBS, Invitrogen) at a density of 2×10^6 cells/ml. To aggregate ES cells, 4 ml of this suspension were incubated on a 6 cm bacteriological dish (Greiner) on a rocking platform (GFL 3006) with agitation (50 rpm). After 6 hours, 2 ml of that culture were added to 13 ml IMDM containing 20% FBS in a T25 flask (Falcon). The flask was incubated with rocking (50 rpm; GFL 3006) for 18 hours. During this procedure ES cell aggregates (embryoid bodies; EBs) were formed.
In 10 cm petri dishes (bacteriological grade, Greiner) medium was prepared consisting of IMDM supplemented with 20% FBS and retinoic acid added from above stocks to yield final concentrations of 10^−7 M, 10^−8 M, 10^−9 M, 10^−10 M, 10^−11 M, and 10^−12 M retinoic acid, respectively. One dish received DMSO (final concentration 0.1% (v/v)) without retinoic acid (solvent control). Each dish contained 10 ml of medium. 70 EBs were transferred into each petri dish and incubated for 4 days.
Subsequently, EBs were transferred to 6-well plates (tissue culture grade; Becton-Dickinson). Each well contained 3 ml IMDM with 20% FBS and retinoic acid and DMSO as described above for the culture in 10 cm dishes. […]
Samples were assayed for SEAP activity using the Great EscAPe SEAP Fluorescence Detection Kit (Becton-Dickinson) following the manufacturer's instructions. Fluorescence was measured using a microplate reader (Safire, Tecan). Background activity was determined by assaying a sample of fresh medium (Knockout™ D-MEM supplemented with 20% (v/v) Knockout™ SR).

Like-named read-outs stand apart in the source and are kept apart here.

For the compound `CC1=C(/C=C/C(C)=C/C=C/C(C)=C/C(=O)O)C(C)(C)CCC1` [retinoic acid, all-trans retinoic acid], the “generation of cardiomyocytes from ES cells” value in test [1] is “inhibit the generation of cardiomyocytes”. The SEAP activity entry in test [2] (10^−8 M retinoic acid, solvent (DMSO) control) is listed as “decreased sharply”; in test [2] (retinoic acid at concentrations higher than 10^−8 M (10^−7 M)) it was “no activity was observed”. For the same compound, the “SEAP activity as compared to controls” value in test [2] (retinoic acid below 10^−9 M, solvent (DMSO) control) is “no influence”.
